As usually defined, the inhibition is the drop in the measured response relative to a control, in per cent.

One assay relates to human cancer cell KB3-1. Nature of the assay: KB3-1 cell growth inhibition (MTT) to examine toxicity. The assay is classed as cell-based. As to conditions: for IC50: Table 3, read-out: KB3-1 (IC50, μg/mL); for Selective toxicity: IC50 (KB3-1)/IC50 (P. falciparum). Here is the method:
To 100 μL (2×10^4/ml) of floating liquid of KB3-1 cells, 100 μL of test compound containing a liquid which was prepared by dissolving a test compound in DMSO and diluted to an appropriate concentration (final concentration of DMSO: 1%) was added. The mixture was incubated under 5% CO2 at 37° C. After 72 hours incubation, 25 μL of MTT reagent was added and incubation was effected for 3 hours before only medium was aspiratedly removed. To the medium 200 μL of DMSO was added, the resulting MTT folmazan was extracted and the amount of the dye was quantitatively measured by a calorimetric method (540 nm). The number of survival cell was counted from the amount of formed dye, and percent growth inhibition was determined to assess the toxic activity. Mitomycin C was used as a positive control.

Assay [1] relates to FCR3 strain (resistant to cycloguanyl) of Plasmodium falciparum. Kind of assay: Plasmodium falciparum growth inhibition (Giemsa smear count, 48 hours). As to conditions: for IC50: Table 3, read-out: P. falciparum (IC50, μg/mL). In kind it is cell-based. How it is done:
FCR3 strain (resistant to cycloguanyl) of Plasmodium falciparum isolated in Gambia was used in the experiment to assess anti-malarial activity. Plasmodium falciparum synchronized to a ring phase by sorbitol treatment was injected in 50 μL 96 well plate. The hematocrit value of the culture liquid is 2% and the infection ratio was 0.55%. A substance to be tested was dissolved in DMSO and diluted with medium to an appropriate concentration before 50 μL of a test compound solution was added to the above 96 well plate to the total volume of 100 μL. The final concentration of DMSO added was 1%. Subsequently, after incubation was effected at 37° C. for 48 hours, a sumea film prepared on a slide glass was stained with Giemsa solution. The number of infected erythrocyte among 1000 erythrocytes was counted under an optical microscope. Percent inhibition of malaria parasite growth was calculated for percent infection obtained under the presence of DMSO only and that under the presence of the compound to be tested. Quinine was used as a positive control.

The subject of assay [2] is Plasmodium berghei (NK65 line). Nature of the assay: In vivo antimalarial activity, four days inhibition effect in infected mouse. The settings on record: ICR mouse; for Inhibition (%) / Averaged parasite blood (%): fourth day; for Averaged parasite blood (%): average ± SD of 5 mice. How it is done: Four weeks old male mouse was bred at 25° C. under the condition of 12 hours light and 12 hours dark, and used in the assay.
Blood was corrected with a syringe from the heart of a donor mouse with 15 % of parasitaemia. To this blood, trisodium citrate aqueous solution was added in one seventh by volume to prevent coagulation of blood. The resulting solution was diluted with 0.9% aqueous sodium chloride solution so that the final concentration of infected blood cells is 1×10^7 per 0.2 ml. […]
To mouse (one group: 5), 0.2 ml of the infected erythrocytes was administered through tail vein. After 2 hours, the CMC solution (0.2 ml) of the respective concentration prepared above was orally administered. Starting with this time as 0 day, the solution was administered every day till a third day and infection ratio was examined on a fourth day. The infection ratio was determined by collecting blood from mouse tail, preparing smear, and counting infected erythrocytes using a microscope. The infection ratio of control mouse (5 infected mice administered only by the 0.5% CMC solution) was about 28% on the fourth day.
Percent growth inhibition of parasites by test compound was calculated from the following formula: Percent growth inhibition of parasites=(1−averaged infection ratio of mice treated with test compound/averaged infection ratio of control mice)×100
Life prolonging effect by test compound (T/C) was calculated from the following equation. Life Prolonging Effect (T/C)=averaged number of subsistence days of mouse treated by test compound/averaged number of subsistence days of control mouse

Setting [3] is: 25 mg/kg oral, day 0 to third day.
Where [4] appears, read: 50 mg/kg oral, day 0 to third day.
Where [5] appears, read: 100 mg/kg oral, day 0 to third day.
The mark [6] stands for this setting: 200 mg/kg oral, day 0 to third day.

In brackets after ≈: the same amount, converted by molar mass. Where two headings read alike, the source gives them in different places. Some results are limits rather than exact numbers.

Take `O=C1C[C@@H](c2ccc(O)cc2)Oc2c1c(O)cc(O)c2[C@H]1C(=O)c2c(O)cc(O)cc2O[C@@H]1c1ccc(O)cc1` [GK-1, 2S,3R,2′S-5,7,5′,7′-tetrahydroxy-2,2′-bis-(4-hydroxyphenyl)-2,3,2′,3′-tetrahydoro-[3,8′]bichromenyl-4,4′-dione]: the IC50 in the assay with human cancer cell KB3-1 (Homo sapiens, KB 3-1) turned out to be 27 µg/mL (≈ 49.8 µM); in assay [1], 0.35 µg/mL (≈ 0.645 µM). In addition, the Selective toxicity in the assay on human cancer cell KB3-1 is 77.

In the case of `O=C1c2c(O)cc(O)cc2O[C@H](c2ccc(O)cc2)[C@H]1c1c(O)cc(O)c2c1O[C@H](c1ccc(O)cc1)[C@@H](O)C2=O` [GK-2, 2S,3R,2′S,3′R-5,7,3′,5′,7′-pentahydroxy-2,2′-bis-(4-hydroxyphenyl)-2,3,2′,3′-tetrahydro-[3,8′]bichromenyl-4,4′-dione], the inhibition at 5 µg/mL with human cancer cell KB3-1 (Homo sapiens, KB 3-1, Table 2, 5 μg/mL) was 22%; in assay [1] (Table 2, 5 μg/mL, read-out: Inhibition of P. falciparum %) it was 65%. This compound also came in with an inhibition at 50 µg/mL in the assay with human cancer cell KB3-1 (Homo sapiens, KB 3-1, Table 2, 50 μg/mL) of 10%. For the same compound, the IC50 in the assay with human cancer cell KB3-1 (Homo sapiens, KB 3-1) is over 100 µg/mL; in assay [1] it was 0.09 µg/mL (≈ 0.161 µM). The compound also displayed a Selective toxicity in the assay with human cancer cell KB3-1 of over 1100. In addition, the Averaged subsistence days in assay [2] (setting [3]) is 9.5 ± 1.7 days; in assay [2] (setting [4]) it was 10.0 ± 0.0 days; in assay [2] (setting [5]) it was 10.0 ± 0.0 days; in assay [2] (setting [6]) it was 11.0 ± 0.7 days. Besides, the “T/C (life prolonging effect)” value in assay [2] (setting [3]) came to 119; in assay [2] (setting [4]) it was 125; in assay [2] (setting [5]), 125; in assay [2] (setting [6]), 134. Further, the “Inhibition (%)” value in assay [2] (setting [3]) was determined as 40%; in assay [2] (setting [4]), 43%; in assay [2] (setting [5]), 52%; in assay [2] (setting [6]), 60%. The “Averaged parasite blood (%)” value amounted to 17.3 ± 3.4% in assay [2] (setting [3]), 16.6 ± 2.4% in assay [2] (setting [4]), 13.9 ± 2.4% in assay [2] (setting [5]) and 11.5 ± 1.2% in assay [2] (setting [6]). The inhibition at 0.5 µg/mL in assay [1] (Table 2, 0.5 μg/mL, read-out: Inhibition of P. falciparum %) amounted to 70%.

Take `C=C[C@H]1C[N@@]2CC[C@H]1C[C@H]2[C@H](O)c1ccnc2ccc(OC)cc12` [quinine, reference compound]: the inhibition at 0.033 µg/mL in assay [1] (Table 1 control, 33 ng/mL, read-out: P. falciparum Growth Inhibition (%)) was 73%; in assay [1] (Table 2 control, 0.033 μg/mL, read-out: Inhibition of P. falciparum %) it was 62%; in assay [1] (Table 3 control, 0.033 μg/mL, read-out: P. falciparum inhibition), 36%. The inhibition at 0.1 µg/mL in assay [1] (Table 1 control, 100 ng/mL, read-out: P. falciparum Growth Inhibition (%)) was found to be 90%; in assay [1] (Table 2 control, 0.1 μg/mL, read-out: Inhibition of P. falciparum %) it was 90%; in assay [1] (Table 3 control, 0.1 μg/mL, read-out: P. falciparum inhibition), 82%.

Regarding `O=C1c2c(O)cc(O)cc2O[C@H](c2ccc(O)cc2)[C@H]1c1c(O)cc(O)c2c1O[C@H](c1ccc(O)c(O)c1)[C@@H](O)C2=O` [GK-3, 2S,3R,2′S,3′R-2′-(3,4-dihydroxyphenyl)-5,7,3′,5′,7′-pentahydroxy-2-(4-hydroxyphenyl)-2,3,2′,3′-tetrahydro-[3,8′]bichromenyl-4,4′-dione], the IC50 with human cancer cell KB3-1 (Homo sapiens, KB 3-1) is over 100 µg/mL; in assay [1], 0.12 µg/mL (≈ 0.209 µM). For the same compound, the Selective toxicity in the assay on human cancer cell KB3-1 is reported as over 830.

Take `C[C@@H]1CC[C@H]2[C@@H](C)C(=O)O[C@@H]3O[C@@]4(C)CC[C@@H]1[C@]32OO4` [artemisinin, reference compound]: in assay [2] (15 mg/kg), the Averaged subsistence days was 10.3 ± 2.3 days, the “T/C (life prolonging effect)” value is reported as 129, the “Inhibition (%)” value came out at 54% and the “Averaged parasite blood (%)” value was determined as 13.3 ± 1.6%.

As for `O=C1c2c(O)cc(O)c([C@@H]3C(=O)c4c(O)cc(O)cc4O[C@H]3c3ccc(O)cc3)c2O[C@H](c2ccc(O)cc2)[C@H]1O` [GK-4, 2R,3S,2′S,3′R-5,7,3′,5′,7′-pentahydroxy-2,2′-bis-(4-hydroxyphenyl)-2,3,2′,3′-tetrahydro-[3,8′]bichromenyl-4,4′-dione], the IC50 in the assay with human cancer cell KB3-1 (Homo sapiens, KB 3-1) was over 100 µg/mL; in assay [1] it was 1.1 µg/mL (≈ 1.97 µM). The same compound registered a Selective toxicity in the assay on human cancer cell KB3-1 of over 91.

These data come from patent publication US20050245600A1, “Novel antimalarial agent” (Osaka Bioscience Institute, priority 2002, published 2005).
